# Measurements published in ChEMBL document CHEMBL1201862, “PubChem BioAssay data set” (2004).
#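 All cell lines were grown in 96-well plates and treated with compound for 48 hours. GI50 marks 50% less growth.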 Active and inactive are the calls of the source. No stated cut-off is given here; in the data, active = GI50 up to about 1.1 µM and inactive = higher.
# How the values were obtained:
# Experiment in all cases: DTP human tumour cell line panel, 48 h
# [1] = tested on: HOP-62
# [2] = tested on: SW-620
# [3] = tested on: Hs-578T
# [4] = tested on: UACC-257
# [5] = tested on: OVCAR-5
# [6] = tested on: SK-MEL-2
# [7] = tested on: ACHN
# [8] = tested on: RXF 393
# [9] = tested on: K562
# [10] = tested on: Malme-3M
# [11] = tested on: OVCAR-3
# [12] = tested on: SK-OV-3
# [13] = tested on: A549
# [14] = tested on: MDA-N
# [15] = tested on: HCT-116
# [16] = tested on: RPMI-8226
# [17] = tested on: A498
# [18] = tested on: NCI-H23
# [19] = tested on: SK-MEL-5
# [20] = tested on: EKVX
# [21] = tested on: UO-31
# [22] = tested on: CCRF-CEM
# [23] = tested on: UACC-62
# [24] = tested on: IGROV-1
# [25] = tested on: MDA-MB-231
# [26] = tested on: NCI-H522
# [27] = tested on: TK-10
# [28] = tested on: COLO 205
# [29] = tested on: SNB-75
# [30] = tested on: 786-0
# [31] = tested on: M14
# [32] = tested on: NCI/ADR-RES
# [33] = tested on: HOP-92
# [34] = tested on: DU-145
# [35] = tested on: U-251
# [36] = tested on: SK-MEL-28
# [37] = tested on: BT-549
# [38] = tested on: HCT-15
# [39] = tested on: OVCAR-4
# [40] = tested on: MOLT-4
# [41] = tested on: CAKI-1
# [42] = tested on: SNB-19
# [43] = tested on: SF-268
# [44] = tested on: MDA-MB-435
# [45] = tested on: MCF7
# [46] = tested on: PC-3
# [47] = tested on: HCC 2998
# [48] = tested on: SF-295
# [49] = tested on: HT-29
# [50] = tested on: NCI-H460
# [51] = tested on: KM12
# [52] = tested on: OVCAR-8
# [53] = tested on: SN12C
# [54] = tested on: LOX IMVI
# [55] = tested on: SR
# [56] = tested on: NCI-H226
# [57] = tested on: SF-539
smiles,measurement,setting,value
Cc1cc(-c2ccc[nH]2)on1,GI50,[1],> 100 µM (inactive)
same,GI50,[2],> 100 µM (inactive)
same,GI50,[3],> 100 µM (inactive)
same,GI50,[4],> 100 µM (inactive)
same,GI50,[5],> 100 µM (inactive)
same,GI50,[6],> 100 µM (inactive)
same,GI50,[7],> 100 µM (inactive)
same,GI50,[8],> 100 µM (inactive)
same,GI50,[9],> 100 µM (inactive)
same,GI50,[10],> 100 µM (inactive)
same,GI50,[11],> 100 µM (inactive)
same,GI50,[12],> 100 µM (inactive)
same,GI50,[13],> 100 µM (inactive)
same,GI50,[14],> 100 µM (inactive)
same,GI50,[15],> 100 µM (inactive)
same,GI50,[16],> 100 µM (inactive)
same,GI50,[17],> 100 µM (inactive)
same,GI50,[18],> 100 µM (inactive)
same,GI50,[19],> 100 µM (inactive)
same,GI50,[20],> 100 µM (inactive)
same,GI50,[21],> 100 µM (inactive)
same,GI50,[22],> 100 µM (inactive)
same,GI50,[23],> 100 µM (inactive)
same,GI50,[24],> 100 µM (inactive)
same,GI50,[25],> 100 µM (inactive)
same,GI50,[26],> 100 µM (inactive)
same,GI50,[27],> 100 µM (inactive)
same,GI50,[28],> 100 µM (inactive)
same,GI50,[29],> 100 µM (inactive)
same,GI50,[30],> 100 µM (inactive)
same,GI50,[31],> 100 µM (inactive)
same,GI50,[32],> 100 µM (inactive)
same,GI50,[33],> 100 µM (inactive)
same,GI50,[34],> 100 µM (inactive)
same,GI50,[35],> 100 µM (inactive)
same,GI50,[36],> 100 µM (inactive)
same,GI50,[37],> 100 µM (inactive)
same,GI50,[38],> 100 µM
same,GI50,[39],> 100 µM (inactive)
same,GI50,[40],> 100 µM (inactive)
same,GI50,[41],> 100 µM (inactive)
same,GI50,[42],> 100 µM (inactive)
same,GI50,[43],> 100 µM (inactive)
same,GI50,[44],> 100 µM (inactive)
same,GI50,[45],> 100 µM (inactive)
same,GI50,[46],> 100 µM (inactive)
same,GI50,[47],> 100 µM (inactive)
same,GI50,[48],> 100 µM (inactive)
same,GI50,[49],> 100 µM (inactive)
same,GI50,[50],> 100 µM (inactive)
same,GI50,[51],> 100 µM (inactive)
same,GI50,[52],> 100 µM (inactive)
CCOC(=O)C(=Cc1[nH]c2ccccc2c1-c1c[nH]c2ccccc12)C(=O)OCC,GI50,[1],14.2 µM (inactive)
same,GI50,[53],15 µM (inactive)
same,GI50,[3],29.9 µM (inactive)
same,GI50,[54],12.7 µM (inactive)
same,GI50,[4],10.4 µM (inactive)
same,GI50,[5],15.1 µM (inactive)
same,GI50,[6],11.7 µM (inactive)
same,GI50,[7],12.2 µM (inactive)
same,GI50,[8],10.8 µM (inactive)
same,GI50,[9],4.12 µM (inactive)
same,GI50,[10],18.7 µM (inactive)
same,GI50,[11],9.33 µM (inactive)
same,GI50,[12],20.3 µM (inactive)
same,GI50,[13],16.6 µM (inactive)
same,GI50,[14],13.3 µM (inactive)
same,GI50,[15],10.8 µM (inactive)
same,GI50,[16],2.84 µM (inactive)
same,GI50,[17],14.5 µM (inactive)
same,GI50,[18],15.3 µM (inactive)
same,GI50,[19],15.5 µM (inactive)
same,GI50,[20],16.1 µM (inactive)
same,GI50,[21],13.5 µM (inactive)
same,GI50,[23],4.88 µM (inactive)
same,GI50,[24],11.1 µM (inactive)
same,GI50,[25],16.9 µM (inactive)
same,GI50,[26],54.7 µM (inactive)
same,GI50,[55],3.13 µM (inactive)
same,GI50,[27],12.7 µM (inactive)
same,GI50,[28],16.2 µM (inactive)
same,GI50,[29],12.9 µM (inactive)
same,GI50,[30],2.75 µM (inactive)
same,GI50,[31],10 µM (inactive)
same,GI50,[56],14 µM (inactive)
same,GI50,[32],7.16 µM (inactive)
same,GI50,[33],11 µM (inactive)
same,GI50,[34],14.1 µM (inactive)
same,GI50,[35],11.7 µM (inactive)
same,GI50,[37],14.7 µM (inactive)
same,GI50,[38],10.1 µM
same,GI50,[39],6.76 µM (inactive)
same,GI50,[40],0.923 µM (active)
same,GI50,[41],17.1 µM (inactive)
same,GI50,[42],14.2 µM (inactive)
same,GI50,[43],13.3 µM (inactive)
same,GI50,[44],5.96 µM (inactive)
same,GI50,[45],4.71 µM (inactive)
same,GI50,[46],10.3 µM (inactive)
same,GI50,[47],11.6 µM (inactive)
same,GI50,[48],12.1 µM (inactive)
same,GI50,[49],5 µM (inactive)
same,GI50,[50],12.6 µM (inactive)
same,GI50,[57],18.5 µM (inactive)
same,GI50,[51],4.69 µM (inactive)
same,GI50,[52],11.3 µM (inactive)
